From EPA's ToxValDB 9.5 come the findings set out here.

The test system of data set [1] is Rattus norvegicus.
Data set [2] deals with Rattus norvegicus. The following applies: oral.
The test system of data set [3] is Rattus norvegicus. The following applies: M/F.
The mark [4] stands for this setting: subchronic, gavage, M, Sprague-Dawley, Body Weight Changes: decrease, Gain decrease + Food Consumption: decrease + Hematology: RBC decrease, Hgb decrease, Hct decrease, Ret ….
The mark [5] stands for this setting: subchronic, gavage, M, Sprague-Dawley, Clinical Observation: Salivation + Body Weight Changes: Body weight gain decrease + Food Consumption: decrease + Water Consumption: increase….
The mark [6] stands for this setting: short-term, duration: 28 days, gavage, M, Sprague-Dawley, Clinical Observation: Locomotor activity decrease, Respiratory rate decrease, Incomplete eyelid opening + Blood Chemistry: TG decrease + ….
The mark [7] stands for this setting: subchronic, gavage, M, Sprague-Dawley, Clinical Observation: Salivation + Urinalysis: Tubular epithelial cell in sediment + Hematology: PT increase, APTT increase + Blood ….
The mark [8] stands for this setting: subchronic, gavage, M, Sprague-Dawley, Clinical Observation: Salivation (transient) + Functional Observational Battery: Salivation (transient)Defecation increase(transient) + ….
The mark [9] stands for this setting: short-term, duration: 28 days, gavage, F, Wistar, Deaths + Clinical Observation: Thinly haired areas of skin Weakness Thin appearance Respiratory disorders Some resistance to dosing + Body ….
The mark [10] stands for this setting: short-term, duration: 28 days, gavage, M, Wistar, Deaths + Clinical Observation: Thinly haired areas of skin Weakness Thin appearance Respiratory disorders Some resistance to dosing + Body ….

As a reminder, the LOAEL is the lowest dose or exposure tested at which an adverse effect was seen. In the case of `[Cl][Ti]([Cl])([Cl])[Cl]` [Titanium tetrachloride], the LOAEL with Rattus norvegicus [1] (chronic, duration: 104 weeks, inhalation, M/F, Crl:CD(SD), respiratory) worked out at 0.1 mg/m3; in the data set on Rattus norvegicus [1] (short-term, duration: 4 weeks, inhalation, M, Crl:CD(SD), respiratory), 5 mg/m3.
For `CCn1cc(C(=O)O)c(=O)c2ccc(C)nc21` [Nalidixic acid], the NOEL in the data set on Rattus norvegicus [2] (subchronic, duration: 13 weeks, diet, M/F, Fischer 344, Deaths + Body Weight Changes: decrease + Food Consumption: decrease + Absolute Organ Weight: Liver increase + Relative Organ Weight: Liver …) was found to be 96 mg/kg-day.
A word on the NOAEL: it is the highest dose or exposure tested at which no adverse effect was seen. `C[Si](O[Si](C)(C)C)O[Si](C)(C)C` [1,1,1,3,5,5,5-Heptamethyltrisiloxane] came in with a no-observed-adverse-effect level (NOAEL) in the data set with Rattus norvegicus [2] (subchronic, duration: 35 days, gavage, M, Wistar, Clinical Observation: Salivation / No description about sex and dosages Pushing the head through the bedding material / No description …) of 50 mg/kg-day.
Turning to `COC(=O)CC(=O)OC` [Dimethyl malonate], the NOAEL with Rattus norvegicus [2] (subchronic, gavage, M, Wistar, Histopathology: Liver: Hypertrophy, hepatocyte) was determined as 300 mg/kg-day.
As for `O=C(O)C(F)(F)C(F)(F)C(F)(F)C(F)(F)C(F)(F)C(F)(F)C(F)(F)C(F)(F)C(F)(F)C(F)(F)C(F)(F)C(F)(F)C(F)(F)C(F)(F)C(F)(F)C(F)(F)C(F)(F)F` [Perfluorooctadecanoic acid], in the data set on Rattus norvegicus [2] (setting [4]), the LOEL was 200 mg/kg-day and the NOEL was found to be 40 mg/kg-day.
As for `[O-][N+](=Nc1ccc(Cl)c(Cl)c1)c1ccc(Cl)c(Cl)c1` [3,3',4,4'-Tetrachloroazoxybenzene], in the data set on Rattus norvegicus [2] (subchronic, gavage, M/F, Fischer 344, Deaths + Body Weight Changes: decrease af>>>10 + Hematology: Plt decrease Hct decrease, Hgb decrease, RBC decrease Ret increase, WBC …), the NOEL was less than 0.1 mg/kg-day.
Turning to `CC(C)CCCCCOC(=O)C[S][Sn]([CH3])([S]CC(=O)OCCCCCC(C)C)[S]CC(=O)OCCCCCC(C)C` [Methyltin tris(isooctyl mercaptoacetate)], the NOAEL in the data set with Rattus norvegicus [2] (subchronic, duration: 90 days, diet, M, Wistar, Blood Chemistry: BUN increase + Relative Organ Weight: Thymus increase, Kidney increase + Histopathology: Kidney: Dilatation, tubule, cystic…) was 48 mg/kg-day.
As to `Cc1ccc(O)c([N+](=O)[O-])c1` [4-Methyl-2-nitrophenol], the NOAEL with Rattus norvegicus [2] (short-term, duration: 28 days, gavage, F, Sprague-Dawley, Clinical Observation: Sedation Ptosis Salivation Reddish tear Soiled perineal region + Urinalysis: Yellow colored urine pH decrease + …) was 60 mg/kg-day. Besides, the NOEL with Rattus norvegicus [2] (short-term, duration: 28 days, gavage, M/F, Sprague-Dawley, Clinical Observation: Sedation Ptosis Salivation Reddish tear Soiled perineal region + Urinalysis: Yellow colored urine pH decrease + …) came to 60 mg/kg-day.
Turning to `C=CCOC(C)=O` [Allyl acetate], the NOEL in the data set on Rattus norvegicus [2] (subchronic, gavage, M/F, Fischer 344, Deaths + Body Weight Changes: decrease + Hematology: Hgb decrease, Plt increase, WBC increase + Blood Chemistry: TP decrease, Alb decrease, …) was less than 6 mg/kg-day.
Regarding `O=C(O)CCCC/C=C(\c1ccccc1)c1cccnc1` [Isbogrel], the NOAEL in the data set on Rattus norvegicus [2] (subchronic, gavage, M/F, CD, Clinical Observation: Salivation + Hematology: RBC decrease, HCT decrease, HGB decrease + Blood Chemistry: Bil increase, GLUC decrease, TP …) was less than 100 mg/kg-day.
`BrC(Br)c1ccccc1OCC1CO1` (stereo not drawn) [2-{[2-(Dibromomethyl)phenoxy]methyl}oxirane]: in the data set with Rattus norvegicus [2] (subchronic, gavage, M, Sprague-Dawley, Clinical Observation: Salivation (transient) + Absolute Organ Weight: Kidney increase + Relative Organ Weight: Kidney increase + …), the NOEL is 8 mg/kg-day.
As to `COC(=O)C1=C(C)NC(C)=C(C(=O)OCC(C)=O)C1c1ccccc1[N+](=O)[O-]` (stereo not drawn) [Aranidipine], the NOEL in the data set with Rattus norvegicus [2] (chronic, duration: 91 days, gavage, M/F, Wistar, Deaths + Clinical Observation: Prone position.0 (Dead animal) Hypothermia.0 (Dead animal) Rough respiration Locomotor activity decrease …) is 3 mg/kg-day.
Regarding `O=C(O)c1cccnc1Cl` [3-Carboxy-2-chloropyridine], the NOEL in the data set on Rattus norvegicus [2] (short-term, duration: 28 days, gavage, M/F, Clinical Observation: Alopecia Salivation + Blood Chemistry: GOT increase, GPT increase, ALP increase, BUN increase + Necropsy: Liver - …) was 10 mg/kg-day.
`Cn1c(=O)c2[nH]cnc2n(C)c1=O` [Theophylline]: the NOEL in the data set with Rattus norvegicus [2] (chronic, duration: 14 weeks, diet, F, Fischer 344, Absolute Organ Weight: Right kidney increase, Lung increase + Relative Organ Weight: Right kidney increase, Lungs increase + Histopathology…) was less than 75 mg/kg-day; with Rattus norvegicus [2] (chronic, duration: 14 weeks, diet, M/F, Fischer 344, Absolute Organ Weight: Right kidney increase, Lung increase + Relative Organ Weight: Right kidney increase, Lungs increase + Histopathology…) it was less than 78 mg/kg-day; in the data set with Rattus norvegicus [2] (chronic, duration: 14 weeks, gavage, M/F, Fischer 344, Deaths + Absolute Organ Weight: Liver increase, Thymus decrease + Relative Organ Weight: Right kidney increase, Liver increase, Uterus …), less than 37.5 mg/kg-day.
`CCCCCC1C(=O)CCC1CC(=O)OC` (stereo not drawn) [Methyl dihydrojasmonate]: in the data set with Rattus norvegicus [2] (setting [5]), the NOAEL came out at 100 mg/kg-day and the NOEL stood at 100 mg/kg-day.
For `CCCCCc1ccc2c(c1)C(=O)c1ccccc1C2=O` [9,10-Anthracenedione, 2-pentyl-], the NOEL in the data set with Rattus norvegicus [2] (short-term, duration: 28 days, gavage, F, Sprague-Dawley, Clinical Observation: Salivation (transient) + Hematology: RBC decrease, PT increase + Absolute Organ Weight: Liver increase + Relative …) is 15 mg/kg-day.
With `CC(C)(c1ccc(O)cc1)c1ccc(C(C)(c2ccc(O)cc2)c2ccc(O)cc2)cc1`, the NOEL with Rattus norvegicus [2] (short-term, duration: 28 days, gavage, M/F, Crj:CD, Hematology: Plt increase + Blood Chemistry: GPT increase, TG increase, Cho increase, TP decrease, LH decrease, , FSH decrease, Estradiol …) was determined as 300 mg/kg-day.
With `CC(CO)OC(C)CO.CC(O)COCC(C)O` (stereo not drawn) [Dipropylene glycol], in the data set with Rattus norvegicus [2] (setting [6]), the NOAEL worked out at 1000 mg/kg-day and the NOEL stood at 200 mg/kg-day.
Consider `BrC=Cc1ccccc1` [(2-Bromovinyl)benzene], for which the NOEL with Rattus norvegicus [2] (short-term, duration: 28 days, gavage, M/F, CD(SD), Deaths + Clinical Observation: Salivation + Urinalysis: Volume increase, Osmotic pressure decrease, Small epidermal cell + Blood Chemistry: …) stood at 30 mg/kg-day.
With `CC(C)=CC=C(C)C` [2,5-Dimethyl-2,4-hexadiene], in the data set with Rattus norvegicus [2] (subchronic, gavage, M, Sprague-Dawley, Clinical Observation: Soiled peri-genital + Body Weight Changes: decrease + Food Consumption: decrease(day1-8) + Hematology: WBC increase, …), the NOEL is less than 100 mg/kg-day.
Turning to `FC(F)(F)c1cccc(C(F)(F)F)c1` [Benzene, 1,3-bis(trifluoromethyl)-], in the data set with Rattus norvegicus [2] (setting [7]), the NOAEL came out at 150 mg/kg-day and the NOEL was less than 40 mg/kg-day.
As to `C[C@H](CCc1ccccc1)NC[C@H](O)c1ccc(O)c(C(N)=O)c1.Cl` [(R,R)-Dilevalol hydrochloride], in the data set on Rattus norvegicus [2] (subchronic, duration: 90 days, gavage, M/F, Sprague-Dawley, Clinical Observation: Salivation + Body Weight Changes: body weight gain decrease + Urinalysis: Volume increase, Specific gravity decrease…), the NOEL is 60 mg/kg-day.
`Nc1nc(N)nc(-c2cc(Cl)ccc2Cl)n1.O=C(O)/C=C\C(=O)O` [Irsogladine maleate]: the NOEL in the data set on Rattus norvegicus [2] (chronic, duration: 91 days, gavage, M/F, Sprague-Dawley, Deaths + Clinical Observation: Piloerection Salivation Locomotor activity decrease, Decrease in reactivity Soiled fur Brownish urine Soiled …) was 3 mg/kg-day.
As to `O=CCCCC=O` [Glutaraldehyde], the NOAEL worked out at 0.512 mg/m3 in the data set on Rattus norvegicus [1] (acute, duration: 1 days, inhalation, M/F, Fischer 344, respiratory) and 4 mg/kg-day with Rattus norvegicus [1] (chronic, duration: 2 years, oral, drinking water, M/F, Fischer 344, gastrointestinal).
Turning to `COc1ccc(N)c([N+](=O)[O-])c1` [4-Methoxy-2-nitroaniline], in the data set on Rattus norvegicus [2] (subchronic, gavage, M, Sprague-Dawley, Clinical Observation: Orangish urine Soiled fur Salivation + Body Weight Changes: decrease(trend) + Food Consumption: decrease + Absolute …), the NOEL was less than 12.5 mg/kg-day.
On to `CC1CCCCC1` [Methylcyclohexane], for which, in the data set with Rattus norvegicus [2] (setting [8]), the LOEL was 250 mg/kg-day and the NOEL turned out to be 62.5 mg/kg-day.
For the molecule `CC(O[Si](C)(C)C(C)(C)C)C1CNC1=O` (stereo not drawn) [3-(1-{[tert-Butyl(dimethyl)silyl]oxy}ethyl)azetidin-2-one], the NOEL in the data set on Rattus norvegicus [2] (short-term, duration: 28 days, gavage, M/F, Clinical Observation: Salivation + Blood Chemistry: TP increase, T-CHO increase, TG increase, Glu decrease, Ca increase + Organ Weight: …) worked out at 8 mg/kg-day.
In the case of `C=CCN(CC=C)CC=C` [Triallylamine], the NOEL in the data set with Rattus norvegicus [2] (short-term, duration: 28 days, gavage, M/F, Sprague-Dawley, Clinical Observation: Locomotor activity decrease, Salivation + Functional Observational Battery: Hind limb grip strength decrease + Body …) was determined as 6 mg/kg-day.
Consider `CCCCCCCCCCCCCCCCO` [1-Hexadecanol], for which the no observed adverse effect level (NOAEL) was determined as 300 mg/kg-day with Rattus norvegicus [2] (setting [9]); 300 mg/kg-day in the data set on Rattus norvegicus [2] (setting [10]); 1000 mg/kg-day in the data set with Rattus norvegicus [2] (short-term, duration: 28 days, gavage, Sprague-Dawley); 875 mg/kg-day in the data set with Rattus norvegicus [2] (subchronic, duration: 13 weeks, diet, F, Crl, Body Weight Changes: decrease2064 + Food Consumption: decrease2064 + Absolute Organ Weight: Brain2064 Heart LiverSpleen Gonad + Relative …); 723 mg/kg-day with Rattus norvegicus [2] (subchronic, duration: 13 weeks, diet, M, Crl, Body Weight Changes: decrease2064 + Food Consumption: decrease2064 + Absolute Organ Weight: Brain2064 Heart LiverSpleen Gonad + Relative …). Moreover, the NOEL is 300 mg/kg-day in the data set on Rattus norvegicus [2] (setting [9]) and 100 mg/kg-day with Rattus norvegicus [2] (setting [10]).
For the molecule `Sc1ccc2ccccc2c1` [2-Naphthalenethiol], the NOEL with Rattus norvegicus [2] (short-term, duration: 28 days, gavage, M/F, Sprague-Dawley, Functional Observational Battery: Landing foot splay decrease + Food Consumption: decrease + Water Consumption: increase + Urinalysis: …) stood at 8 mg/kg-day.
For `ClC(COCC(Cl)C(Cl)(Cl)Cl)C(Cl)(Cl)Cl` (stereo not drawn) [Bis(2,3,3,3-tetrachloropropyl) ether], the NOEL in the data set with Rattus norvegicus [2] (subchronic, gavage, M/F, Wistar, Clinical Observation: Lethargy + Body Weight Changes: decrease + Urinalysis: Ketone body increase, TP increase + Hematology: Hgb decrease, …) worked out at 40 mg/kg-day.
The molecule `Brc1ccc(Oc2cc(Br)c(Br)cc2Br)c(Br)c1` [2,2',4,4',5-Pentabromodiphenyl ether] came in with an LOAEL in the data set with Rattus norvegicus [1] (developmental, duration: 1 days, oral, gavage, M/F, Wistar, developmental) of 0.06 mg/kg-day. The LOEL in the data set on Rattus norvegicus [3] (developmental, injection, intraperitoneal, Wistar, generation: F1, F1: Y maze) came to 30 mg/kg-day; in the data set with Rattus norvegicus [3] (reproduction developmental, oral, gavage, Crl:CD(SD), generation: P0, P0: Morris water maze (latency, significant trial)), 2 mg/kg-day.
Consider `[Cd]` [Cadmium], for which the LOAEL in the data set on Rattus norvegicus [1] (short-term, duration: 2 weeks, inhalation, M/F, Fischer 344, respiratory) is 0.088 mg/m3.
In the data set on Rattus norvegicus [1] (developmental, duration: 364 days, oral, diet, M/F, Sprague-Dawley, developmental), `CCN(CC)C(=O)c1cccc(C)c1` [DEET] registered an NOAEL of 100 mg/kg-day.
Turning to `ClCOCCl` [bis(Chloromethyl) ether], in the data set with Rattus norvegicus [1] (chronic, duration: 6 months, inhalation, M, Sprague-Dawley, respiratory), the NOAEL came out at 0.47 mg/m3.
